According to US9000037B2, “Precursors of glutamate derivatives” (Piramal Imaging SA, priority 2011, dated 2015):

Tests used:
tumor = conditions: cited from earlier work
[1] = 19F-fluorination of precursors, reaction rates; assay type: physicochemical; conditions: for krel (relative reaction rate): 19F-fluorination, slowest reaction (If) defined as 1; for reaction rate of 19F-fluorination, in words: comparison among precursors
Method: Precursor (0.01 mmol) was dissolved in acetonitrile (0.5 mL), and 1.0 M TBAF/acetonitrile solution (20 μL, 0.02 mmol) was added. The reaction mixture was stirred at 80° C. for 2 h. 40 μL of solution was taken at 5, 10, 20, 40, 60, 90, and 120 min for HPLC analysis (method A4).
^19F-Fluorination was performed as described in “General procedures”. The progress of the reaction was examined after 5, 10, 20, 40, 60, 90, and 120 min. Plotting the percentage of the conversation versus the time, the reaction rates were calculated.

[2] = Stability of example compounds in solid form (HPLC); assay type: physicochemical; conditions: for Solid (%) Start: purity by HPLC before the study; for Solid (%) 1 week 0° C. / Solid (%) 1 week −20° C. / Solid (%) 2 week 0° C. / Solid (%) 2 week −20° C. / Solid (%) 3 week 0° C. / Solid (%) 3 week −20° C. / Solid (%) 4 week 0° C. / Solid (%) 4 week −20° C.: amber vial under Ar; for Solid (%) 2 week 0° C. / Solid (%) 2 week −20° C.: 2 weeks; for Solid (%) 3 week 0° C. / Solid (%) 3 week −20° C.: 3 weeks; for Solid (%) 4 week 0° C. / Solid (%) 4 week −20° C.: 4 weeks
Method: Method A1 (analytics of di-tert-butyl (4S)-4-(3-hydroxypropyl)-N-trityl-L-glutamate • Column: ChiralPak IA, 4.6×250 mm • Mobile phase: 5% IPA/n-heptane • Flow rate: 1 mL/min • Wavelength: 214/254 nm Method A2 (for Id) • Column: X-Bridge • Mobile phase: Acetonitrile/water 20:80 to 100% water • Flow rate: 1 mL/min • Wavelength: 214 nm Method A3 (for Ia to Ic and Ie to II) • Column: X-Bridge • Mobile phase: Acetonitrile/water […] to 100% water • Flow rate: 1 mL/min • Wavelength: 214 nm Method A4 (^19F-fluorination) • Column: Phenomenex Lux 5U Amylose-2 • Mobile phase: 10% IPA/Hex • Flow rate: 1 mL/min • Wavelength: 214 nm Method A5 (^18F-radiolabeling) • Column: Phenomenex Luna 5μ C18(2); 250*4.6 mm • Mobile phase: A: Na2HPO4 10 mM pH 7.4, B: acetonitrile • Gradient: 0 min 12% B, 15 min 12% B, 16 min 100% B, 18 min 100% B, 20 min 12% B, 23 min 12% B • Flow rate: 1.2 mL/min • Wavelength: 340 nm • Derivatization: […] of the product solution are mixed with […] OPA reagent (Thermo Scientific, No.:26015). After 1 min reaction at room temperature the solution is applied to the HPLC
The stability of the compounds of formula I were examined in solid form at two different temperatures: 0° C., and −20° C. The precursors were tested weekly for 4 weeks. Before the study, purities of the precursors were determined individually by HPLC analysis.
1. Solid state: 3-5 mg of the respective precursor Ia to Ij were put into 8 amber vials, which were flushed with Ar gas and capped. Each four vials containing precursor were stored at 0° C., and −20° C. Every week for 4 weeks, 1 mg of precursor was dissolved in acetonitrile (1.0 mL). 10 μL of solution was injected into HPLC (method A2 or A3, respectively).

N[C@@H](C[C@H](CCC[18F])C(=O)O)C(=O)O [(S)-4-(3-[^18F]Fluoropropyl)-L-glutamic acid]
results in first clinical studies (tumor; compared with [18F]-4-fluoro-glutamic acid): Superior results
detection of lung cancer (tumor; first clinical studies): Very good results

CC(C)(C)OC(=O)[C@@H](CCCOS(=O)(=O)c1c(Cl)cc(Cl)cc1Cl)C[C@H](NC(c1ccccc1)(c1ccccc1)c1ccccc1)C(=O)OC(C)(C)C [Ii, Di-tert-butyl (4S)-4-(3-{[(2,4,6-trichlorophenyl)sulfonyl]oxy}propyl)-N-trityl-L-glutamate]
krel (relative reaction rate) [1]: 1.88
Solid (%) Start [2]: 97.2%
Solid (%) 1 week 0° C. [2]: 89.5%
Solid (%) 1 week −20° C. [2]: 89.6%
Solid (%) 2 week 0° C. [2]: 97.0%
Solid (%) 2 week −20° C. [2]: 97.0%
Solid (%) 3 week 0° C. [2]: 96.7%
Solid (%) 3 week −20° C. [2]: 95.6%
Solid (%) 4 week 0° C. [2]: 95.9%
Solid (%) 4 week −20° C. [2]: 93.2%

CC(C)(C)OC(=O)[C@@H](CCCOS(=O)(=O)c1ccc([N+](=O)[O-])c(C(F)(F)F)c1)C[C@H](NC(c1ccccc1)(c1ccccc1)c1ccccc1)C(=O)OC(C)(C)C [Ih, Di-tert-butyl (4S)-4-[3-({[4-nitro-3-(trifluoromethyl)phenyl]sulfonyl}oxy)propyl]-N-trityl-L-glutamate]
Solid (%) Start [2]: 97.6%
Solid (%) 1 week 0° C. [2]: 94.4%
Solid (%) 1 week −20° C. [2]: 94.6%
Solid (%) 2 week 0° C. [2]: 95.0%
Solid (%) 2 week −20° C. [2]: 94.8%
Solid (%) 3 week 0° C. [2]: 93.1%
Solid (%) 3 week −20° C. [2]: 93.1%
Solid (%) 4 week 0° C. [2]: 93.4%
Solid (%) 4 week −20° C. [2]: 92.8%

CC(C)(C)OC(=O)[C@@H](CCCOS(=O)(=O)c1cccc2ccccc12)C[C@H](NC(c1ccccc1)(c1ccccc1)c1ccccc1)C(=O)OC(C)(C)C [Ie, Di-tert-butyl (4S)-4-{3-[(1-naphthylsulfonyl)oxy]propyl}-N-trityl-L-glutamate]
krel (relative reaction rate) [1]: 2.45
Solid (%) Start [2]: 99.1%
Solid (%) 1 week 0° C. [2]: 99.0%
Solid (%) 1 week −20° C. [2]: 98.9%
Solid (%) 2 week 0° C. [2]: 99.0%
Solid (%) 2 week −20° C. [2]: 99.0%
Solid (%) 3 week 0° C. [2]: 99.0%
Solid (%) 3 week −20° C. [2]: 98.6%
Solid (%) 4 week 0° C. [2]: 98.6%
Solid (%) 4 week −20° C. [2]: 97.9%

CC(C)(C)OC(=O)[C@@H](CCCOS(=O)(=O)c1cccc([N+](=O)[O-])c1)C[C@H](NC(c1ccccc1)(c1ccccc1)c1ccccc1)C(=O)OC(C)(C)C [Ib, Di-tert-butyl (4S)-4-(3-{[(3-nitrophenyl)sulfonyl]oxy}propyl)-N-trityl-L-glutamate]
krel (relative reaction rate) [1]: 9.86
reaction rate of 19F-fluorination, in words [1]: Fastest conversion
Solid (%) Start [2]: 96.7%
Solid (%) 1 week 0° C. [2]: 96.5%
Solid (%) 1 week −20° C. [2]: 96.6%
Solid (%) 2 week 0° C. [2]: 94.6%
Solid (%) 2 week −20° C. [2]: 94.8%
Solid (%) 3 week 0° C. [2]: 95.0%
Solid (%) 3 week −20° C. [2]: 93.7%
Solid (%) 4 week 0° C. [2]: 91.3%
Solid (%) 4 week −20° C. [2]: 94.3%

CC(C)(C)OC(=O)[C@@H](CCCOS(=O)(=O)c1ccc([N+](=O)[O-])cc1)C[C@H](NC(c1ccccc1)(c1ccccc1)c1ccccc1)C(=O)OC(C)(C)C [Ia, Di-tert-butyl (4S)-4-(3-{[(4-nitrophenyl)sulfonyl]oxy}propyl)-N-trityl-L-glutamate]
krel (relative reaction rate) [1]: 6.93
reaction rate of 19F-fluorination, in words [1]: Fastest conversion
Solid (%) Start [2]: 99.4%
Solid (%) 1 week 0° C. [2]: 99.5%
Solid (%) 1 week −20° C. [2]: 99.4%
Solid (%) 2 week 0° C. [2]: 99.3%
Solid (%) 2 week −20° C. [2]: 99.2%
Solid (%) 3 week 0° C. [2]: 99.1%
Solid (%) 3 week −20° C. [2]: 99.0%
Solid (%) 4 week 0° C. [2]: 98.7%
Solid (%) 4 week −20° C. [2]: 98.4%

CC(C)(C)OC(=O)[C@@H](CCCOS(=O)(=O)c1ccc(-c2ccc(S(=O)(=O)OCCC[C@@H](C[C@H](NC(c3ccccc3)(c3ccccc3)c3ccccc3)C(=O)OC(C)(C)C)C(=O)OC(C)(C)C)cc2)cc1)C[C@H](NC(c1ccccc1)(c1ccccc1)c1ccccc1)C(=O)OC(C)(C)C [Ig, Tetra-tert-butyl (2S,4S,2′S,4′S)-2,2′-[biphenyl-4,4′-diylbis(sulfonyloxypropane-3,1-diyl)]bis[4-(tritylamino)pentanedioate]]
krel (relative reaction rate) [1]: 11.8
reaction rate of 19F-fluorination, in words [1]: Fastest conversion
Solid (%) Start [2]: 97.9%
Solid (%) 1 week 0° C. [2]: 97.9%
Solid (%) 1 week −20° C. [2]: 98.0%
Solid (%) 2 week 0° C. [2]: 98.0%
Solid (%) 2 week −20° C. [2]: 98.1%
Solid (%) 3 week 0° C. [2]: 97.9%
Solid (%) 3 week −20° C. [2]: 97.9%
Solid (%) 4 week 0° C. [2]: 97.8%
Solid (%) 4 week −20° C. [2]: 97.5%

CC(C)(C)OC(=O)[C@@H](CCCOS(=O)(=O)c1cccc2cccnc12)C[C@H](NC(c1ccccc1)(c1ccccc1)c1ccccc1)C(=O)OC(C)(C)C [If, Di-tert-butyl (4S)-4-{3-[(quinolin-8-ylsulfonyl)oxy]propyl}-N-trityl-L-glutamate]
krel (relative reaction rate) [1]: 1.0
reaction rate of 19F-fluorination, in words [1]: slowest reaction
Solid (%) Start [2]: 90.5%
Solid (%) 1 week 0° C. [2]: 89.5%
Solid (%) 1 week −20° C. [2]: 89.6%
Solid (%) 2 week 0° C. [2]: 89.0%
Solid (%) 2 week −20° C. [2]: 88.5%
Solid (%) 3 week 0° C. [2]: 89.0%
Solid (%) 3 week −20° C. [2]: 88.3%
Solid (%) 4 week 0° C. [2]: 89.0%
Solid (%) 4 week −20° C. [2]: 87.0%

CC(C)(C)OC(=O)[C@@H](CCCOS(=O)(=O)c1ccc(-c2ccccc2)cc1)C[C@H](NC(c1ccccc1)(c1ccccc1)c1ccccc1)C(=O)OC(C)(C)C [Ic, Di-tert-butyl (4S)-4-{3-[(biphenyl-4-ylsulfonyl)oxy]propyl}-N-trityl-L-glutamate]
krel (relative reaction rate) [1]: 2.93
Solid (%) Start [2]: 98.8%
Solid (%) 1 week 0° C. [2]: 98.6%
Solid (%) 1 week −20° C. [2]: 98.6%
Solid (%) 2 week 0° C. [2]: 98.6%
Solid (%) 2 week −20° C. [2]: 98.7%
Solid (%) 3 week 0° C. [2]: 98.6%
Solid (%) 3 week −20° C. [2]: 96.9%
Solid (%) 4 week 0° C. [2]: 98.4%
Solid (%) 4 week −20° C. [2]: 98.0%

N[C@@H](CC([18F])C(=O)O)C(=O)O (some centres unmarked) [[^18F]-4-fluoro-glutamic acid]
tumor uptake (tumor; first clinical studies): good tumor uptake
defluorination (tumor; in vivo): some defluorination was detected

CC(C)(C)OC(=O)[C@@H](CCCOS(=O)(=O)c1ccc2ccccc2c1)C[C@H](NC(c1ccccc1)(c1ccccc1)c1ccccc1)C(=O)OC(C)(C)C [Id, Di-tert-butyl (4S)-4-{3-[(2-naphthylsulfonyl)oxy]propyl}-N-trityl-L-glutamate]
krel (relative reaction rate) [1]: 2.38
Solid (%) Start [2]: 99.8%
Solid (%) 1 week 0° C. [2]: 99.8%
Solid (%) 1 week −20° C. [2]: 99.8%
Solid (%) 3 week 0° C. [2]: 99.8%
Solid (%) 3 week −20° C. [2]: 99.8%
Solid (%) 4 week 0° C. [2]: 99.8%
Solid (%) 4 week −20° C. [2]: 99.8%
